We go through 7 molecules from ChEMBL document CHEMBL3627641, “Identification of a new p53/MDM2 inhibitor motif inspired by studies of chlorofusin” (Bioorg Med Chem Lett, 2015).

The subject of one assay is SJSA-1. The experiment in a line: Cytotoxic activity against human SJSA1 cells. It counts as functional, cell-based.
Another assay relates to A-375. Kind of assay: Cytotoxic activity against human A375 cells. It counts as functional, cell-based.
Where [1] appears, read: Homo sapiens, SJSA-1, read-out: IC50.

Each structure is given as a SMILES string.

On to `O=C(N[C@@H](CCCn1cc(-c2ccc(I)cc2)nn1)C(=O)O)OCC1c2ccccc2-c2ccccc21`, for which the IC50 result in the assay on SJSA-1 (sjsa-1) and in the assay with A-375 (a-375) was “Not Active” throughout.

Turning to `Cc1ccc(-c2cn(CCC[C@H](NC(=O)OCC3c4ccccc4-c4ccccc43)C(=O)O)nn2)cc1`, the 50% inhibitory concentration (IC50) with SJSA-1 (setting [1]) is 33.1 µM; in the assay with A-375 (a-375) it was “Not Active”.

With `O=C(N[C@@H](CCCn1cc(-c2ccc(Br)cc2)nn1)C(=O)O)OCC1c2ccccc2-c2ccccc21`, the IC50 result in the assay with SJSA-1 (sjsa-1) and in the assay with A-375 (a-375) was “Not Active” throughout.

Regarding `O=C(N[C@@H](CCCn1cc(-c2ccc(C(F)(F)F)cc2)nn1)C(=O)O)OCC1c2ccccc2-c2ccccc21`, the IC50 with SJSA-1 (setting [1]) was 31.2 µM; in the assay with A-375 (Homo sapiens, A-375, read-out: IC50) it was 49.3 µM.

As to `COc1ccc(-c2cn(CCC[C@H](NC(=O)OCC3c4ccccc4-c4ccccc43)C(=O)O)nn2)cc1`, the IC50 entry in the assay with SJSA-1 (sjsa-1) and in the assay with A-375 (a-375) was “Not Active” each time.

As to `O=C(N[C@@H](CCCn1cc(-c2ccc(Cl)cc2)nn1)C(=O)O)OCC1c2ccccc2-c2ccccc21`, the IC50 result in the assay with SJSA-1 (sjsa-1) and in the assay with A-375 (a-375) was “Not Active” in each case.

Consider `CC(C)(C)OC(=O)Nc1ccc(-c2cn(CCC[C@H](NC(=O)OCC3c4ccccc4-c4ccccc43)C(=O)O)nn2)cc1`, for which the IC50 result in the assay on SJSA-1 (sjsa-1) and in the assay with A-375 (a-375) was “Not Active” in each case.

The term IC50 denotes the concentration at which inhibition is half-maximal.
